Structures are written as SMILES.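 Briefly, cells in 96-well plates were exposed to five compound concentrations for 48 h, and endpoints were estimated by linear interpolation. Abbreviation: GI50, concentration required for 50% inhibition of growth.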 Activity calls are given as the source filed them. Cut-off read from the data, not from the text of the source: active = GI50 up to about 1.1 µM and inactive = higher.

Among the test systems are MDA-N; K562; IGROV-1; SW-620; BT-549; CAKI-1; COLO 205; M14; NCI-H226; 786-0; HCT-15; Hs-578T; TK-10; HOP-62; SK-OV-3; A498; OVCAR-8; MCF7; RXF 393.
What all share (assay): growth of human tumour cells (NCI), 48 h

On to `O=C(O)Cn1ccc(=O)c2ccc([N+](=O)[O-])cc21`, for which the GI50 in the test with MDA-N, in the test on K562, with IGROV-1, with SW-620, with BT-549 and in the test with CAKI-1 was > 100 µM (inactive) each time. Besides, the GI50 was > 100 µM (inactive) with COLO 205; > 100 µM (inactive) with M14; > 100 µM (inactive) in the test with NCI-H226; > 100 µM (inactive) in the test on 786-0; above 100 µM with HCT-15; > 100 µM (inactive) in the test with Hs-578T. Also, the GI50 in the test with TK-10, in the test on HOP-62, with SK-OV-3, in the test on A498, with OVCAR-8 and in the test on MCF7 was > 100 µM (inactive) each time.

As to `O/N=C(/C(Cl)=C(Cl)Cl)C(Cl)Cl`, the GI50 with MDA-N is 17 µM (inactive); in the test on K562, 13.3 µM (inactive); in the test on IGROV-1, 20.4 µM (inactive); in the test on SW-620, 20.4 µM (inactive); in the test on BT-549 it was 21.3 µM (inactive); in the test with CAKI-1, 33.6 µM (inactive). Further, the GI50 in the test on COLO 205 is 20.7 µM (inactive); with M14, 20.2 µM (inactive); with RXF 393, 16.3 µM (inactive); in the test with NCI-H226, 31 µM (inactive); with 786-0, 18.7 µM (inactive); with HCT-15, 17.2 µM. Moreover, the GI50 in the test with Hs-578T was 19.1 µM (inactive); with TK-10, 18.3 µM (inactive); with HOP-62, 23.3 µM (inactive); in the test with SK-OV-3 it was 28.8 µM (inactive); in the test on A498, > 100 µM (inactive); in the test on OVCAR-8, 23.9 µM (inactive). Also, the GI50 in the test with MCF7 was 25.6 µM (inactive).

For the compound `Oc1ccc2c(c1)CCc1c-2n(CCN2CCOCC2)c2ccc(O)cc12`, the GI50 in the test with MDA-N was 45.3 µM (inactive); in the test on K562, 41.6 µM (inactive); in the test on IGROV-1, 11 µM (inactive); in the test with SW-620 it was 44.9 µM (inactive); in the test on BT-549, 31.3 µM (inactive); in the test on CAKI-1 it was 24.8 µM (inactive). The GI50 in the test on COLO 205 is 56.2 µM (inactive); in the test on M14, 39 µM (inactive); in the test with RXF 393, 30.5 µM (inactive); in the test on NCI-H226, 22.8 µM (inactive); in the test on 786-0, 43.5 µM (inactive); in the test with HCT-15 it was 36.1 µM. In addition, the GI50 was 32.8 µM (inactive) in the test with Hs-578T; 36.7 µM (inactive) with TK-10; 43.4 µM (inactive) in the test with HOP-62; 46.3 µM (inactive) in the test on SK-OV-3; 14.9 µM (inactive) in the test on A498; 20.2 µM (inactive) in the test on OVCAR-8. In the test on MCF7, the GI50 was 23.5 µM (inactive).

Turning to `COc1cc2nc(-c3ccccc3)cc(O)c2c(OC)c1OC`, the GI50 in the test on MDA-N, in the test with K562, in the test on IGROV-1, in the test with SW-620, in the test with BT-549 and in the test on COLO 205 was > 100 µM (inactive) each time. Moreover, the GI50 in the test with M14 is > 100 µM (inactive); in the test on RXF 393 it was > 100 µM (inactive); in the test with NCI-H226, > 100 µM (inactive); in the test with 786-0 it was > 100 µM (inactive); in the test on HCT-15, above 100 µM; in the test on Hs-578T, > 100 µM (inactive). The GI50 with TK-10 is > 100 µM (inactive); with HOP-62, > 100 µM (inactive); in the test with SK-OV-3, > 100 µM (inactive); with A498, > 100 µM (inactive); in the test with OVCAR-8 it was > 100 µM (inactive); with MCF7, 67.1 µM (inactive).

`O=C1/C(=C/c2ccc([N+](=O)[O-])cc2)C(=O)N(c2ccccc2)C1c1ccccc1` (stereo not given): the GI50 in the test with MDA-N, in the test with IGROV-1, with SW-620, with BT-549, with CAKI-1 and in the test on COLO 205 was > 10 µM (inactive) in each case. The GI50 was > 10 µM (inactive) in the test with M14; > 10 µM (inactive) with RXF 393; > 10 µM (inactive) with NCI-H226; > 10 µM (inactive) in the test with 786-0; above 10 µM in the test on HCT-15; > 10 µM (inactive) in the test on Hs-578T. The GI50 with TK-10, in the test with HOP-62, in the test with SK-OV-3, with A498, in the test on OVCAR-8 and in the test with MCF7 was > 10 µM (inactive) in each case.

Consider `N#C/C=c1/c2ccccc2n2nc3ccccc3c12`, for which the GI50 was > 100 µM (inactive) in the test on MDA-N; > 100 µM (inactive) in the test on K562; 7.19 µM (inactive) in the test with IGROV-1; 25.6 µM (inactive) in the test with SW-620; > 100 µM (inactive) in the test with BT-549; 6.85 µM (inactive) in the test with CAKI-1. In addition, the GI50 in the test on COLO 205 was 16.8 µM (inactive); in the test on M14 it was 51.9 µM (inactive); in the test with RXF 393 it was 16.8 µM (inactive); with 786-0, 5.01 µM (inactive); in the test on HCT-15, 43.3 µM; in the test with Hs-578T it was 22.1 µM (inactive). Also, the GI50 in the test on TK-10 was 8.02 µM (inactive); in the test on HOP-62, 17 µM (inactive); in the test with SK-OV-3, 5.65 µM (inactive); with A498 it was 13.7 µM (inactive); in the test on OVCAR-8 it was 11.7 µM (inactive); in the test with MCF7, 11.3 µM (inactive).

Turning to `Cc1nc(N)c(N2CCN(C#N)CC2)c(O)n1`, the GI50 with MDA-N, in the test with K562, in the test on SW-620, with BT-549, in the test with COLO 205 and in the test with M14 was > 100 µM (inactive) each time. For the same compound, the GI50 with NCI-H226 was > 100 µM (inactive); in the test on 786-0, > 100 µM (inactive); with HCT-15 it was above 100 µM; with Hs-578T, > 100 µM (inactive); in the test on TK-10, > 100 µM (inactive); with HOP-62, > 100 µM (inactive). For the same compound, the GI50 in the test on A498, with OVCAR-8 and in the test on MCF7 was > 100 µM (inactive) in each case.

For the compound `OC[C@H]1N[C@H](CO)[C@@H](O)[C@H]1O`, the GI50 in the test with MDA-N was > 10 µM (inactive); with K562 it was > 100 µM (inactive); in the test with IGROV-1, > 100 µM (inactive); in the test with SW-620 it was > 100 µM (inactive); with BT-549, > 100 µM (inactive); with CAKI-1 it was > 100 µM (inactive). In addition, the GI50 is > 100 µM (inactive) with COLO 205; > 100 µM (inactive) in the test on M14; > 100 µM (inactive) in the test on RXF 393; > 100 µM (inactive) in the test on NCI-H226; > 100 µM (inactive) in the test with 786-0; above 100 µM in the test on HCT-15. For the same compound, the GI50 in the test on Hs-578T, with TK-10, with HOP-62, in the test with SK-OV-3, in the test with A498 and in the test on OVCAR-8 was > 100 µM (inactive) in each case. In the test on MCF7, the GI50 is > 100 µM (inactive).

As for `COc1cc(CNc2nc3cc(C(F)(F)F)ccc3nc2C(=O)O)cc(OC)c1OC`, the GI50 was 21.5 µM (inactive) in the test on MDA-N; 28 µM (inactive) in the test with K562; 31.6 µM (inactive) in the test on SW-620; 29.8 µM (inactive) in the test on BT-549; 25.3 µM (inactive) in the test on CAKI-1; 22.6 µM (inactive) with COLO 205. Moreover, the GI50 in the test with M14 is 17.5 µM (inactive); in the test on RXF 393, 23.8 µM (inactive); in the test with NCI-H226, 60.7 µM (inactive); with 786-0, 19.3 µM (inactive); in the test on HCT-15, 29.6 µM; with Hs-578T it was 10.4 µM (inactive). Also, the GI50 in the test on TK-10 was 13.1 µM (inactive); with HOP-62, 18.5 µM (inactive); in the test on SK-OV-3, 28.4 µM (inactive); in the test with A498, 24.2 µM (inactive); in the test with OVCAR-8, 34.4 µM (inactive); in the test with MCF7 it was 20.1 µM (inactive).

In the case of `COC(=O)c1ccccc1NC(=S)NN(C)C`, the GI50 with MDA-N, in the test on K562, in the test with IGROV-1, with SW-620, in the test on BT-549 and in the test on CAKI-1 was > 100 µM (inactive) throughout. In addition, the GI50 is > 100 µM (inactive) in the test on COLO 205; > 100 µM (inactive) in the test with M14; > 100 µM (inactive) in the test with RXF 393; > 100 µM (inactive) in the test on NCI-H226; > 100 µM (inactive) in the test with 786-0; above 100 µM in the test with HCT-15. In addition, the GI50 in the test on Hs-578T, in the test on TK-10, in the test on SK-OV-3, with A498, in the test on OVCAR-8 and in the test on MCF7 was > 100 µM (inactive) in each case.

For `CC(=O)N1c2ccccc2C2=NN=C(N(C)C)SC21` (stereo not given), the GI50 in the test on MDA-N was 3.33 µM (inactive); in the test with K562 it was 3.37 µM (inactive); in the test with SW-620, 4.78 µM (inactive); in the test on BT-549 it was 9.35 µM (inactive); with COLO 205, 3.3 µM (inactive); with M14 it was 1.84 µM (inactive). For the same compound, the GI50 was 3.12 µM (inactive) in the test on NCI-H226; 2.48 µM (inactive) in the test with 786-0; 0.838 µM in the test on HCT-15; 13.5 µM (inactive) in the test on Hs-578T; 9.06 µM (inactive) in the test with TK-10; 3.8 µM (inactive) in the test on HOP-62. Also, the GI50 in the test on A498 is 3.17 µM (inactive); in the test on OVCAR-8 it was 2.65 µM (inactive); in the test on MCF7, 4.06 µM (inactive).

These data come from ChEMBL document CHEMBL1201862, “PubChem BioAssay data set” (2004).
